Experimental data as given in US20200000816A1, “COMPOUND HAVING SOMATOSTATIN RECEPTOR AGONISTIC ACTIVITY AND PHARMACEUTICAL USE THEREOF” (ONO PHARMACEUTICAL CO., LTD., priority 2017, published 2020).

Tests used:
gastric acid secretion = assay: Evaluation of suppression of gastric acid secretion using rats (pyloric ligation); assay type: in vivo, rat; conditions: continuous intravenous administration, 1 μg/kg/h
[1] = biological target: somatostatin receptor subtype 2 (SSTR2) (Homo sapiens, UniProt P30874); conditions: reported in background art; cited from earlier work
Chain of somatostatin receptor subtype 2 (SSTR2) (P30874 whole entry, species assumed): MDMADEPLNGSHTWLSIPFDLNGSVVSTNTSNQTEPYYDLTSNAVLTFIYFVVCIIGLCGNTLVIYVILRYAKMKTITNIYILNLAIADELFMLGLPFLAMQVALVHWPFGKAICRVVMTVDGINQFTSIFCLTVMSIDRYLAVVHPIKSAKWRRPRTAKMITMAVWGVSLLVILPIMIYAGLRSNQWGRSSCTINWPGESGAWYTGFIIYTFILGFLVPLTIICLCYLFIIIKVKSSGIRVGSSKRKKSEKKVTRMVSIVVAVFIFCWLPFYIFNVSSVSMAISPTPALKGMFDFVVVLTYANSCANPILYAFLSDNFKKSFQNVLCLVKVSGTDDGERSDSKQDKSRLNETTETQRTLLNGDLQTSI

[2] = biological target: somatostatin receptor subtype 3 (SSTR3) (Homo sapiens, UniProt P32745); conditions: reported in background art; cited from earlier work
Chain of somatostatin receptor subtype 3 (SSTR3) (P32745 whole entry, species assumed): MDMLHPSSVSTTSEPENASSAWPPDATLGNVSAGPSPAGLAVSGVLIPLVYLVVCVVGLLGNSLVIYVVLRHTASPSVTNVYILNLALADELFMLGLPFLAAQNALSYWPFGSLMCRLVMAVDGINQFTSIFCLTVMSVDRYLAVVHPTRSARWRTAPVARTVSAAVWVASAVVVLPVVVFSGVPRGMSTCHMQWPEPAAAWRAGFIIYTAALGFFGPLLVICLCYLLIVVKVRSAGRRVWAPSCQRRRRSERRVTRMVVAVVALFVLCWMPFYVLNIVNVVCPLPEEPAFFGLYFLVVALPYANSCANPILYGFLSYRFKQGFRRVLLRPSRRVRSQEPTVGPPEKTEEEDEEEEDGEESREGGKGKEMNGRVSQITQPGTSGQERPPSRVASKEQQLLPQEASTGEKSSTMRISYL

[3] = biological target: somatostatin receptor subtype 1 (SSTR1) (Homo sapiens, UniProt P30872); conditions: reported in background art; cited from earlier work
Chain of somatostatin receptor subtype 1 (SSTR1) (P30872 whole entry, species assumed): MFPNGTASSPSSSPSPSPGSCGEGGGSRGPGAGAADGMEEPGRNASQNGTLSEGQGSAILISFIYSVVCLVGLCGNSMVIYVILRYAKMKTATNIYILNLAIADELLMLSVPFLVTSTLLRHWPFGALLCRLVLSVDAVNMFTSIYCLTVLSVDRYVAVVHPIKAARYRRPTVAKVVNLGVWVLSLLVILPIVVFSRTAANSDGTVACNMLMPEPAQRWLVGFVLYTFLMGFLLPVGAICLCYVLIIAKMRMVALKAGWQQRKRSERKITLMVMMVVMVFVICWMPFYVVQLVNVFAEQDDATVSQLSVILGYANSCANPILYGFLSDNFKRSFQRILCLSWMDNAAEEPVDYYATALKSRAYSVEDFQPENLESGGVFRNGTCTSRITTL

[4] = biological target: somatostatin receptor subtype 4 (SSTR4) (Homo sapiens, UniProt P31391); conditions: reported in background art; cited from earlier work
Chain of somatostatin receptor subtype 4 (SSTR4) (P31391 whole entry, species assumed): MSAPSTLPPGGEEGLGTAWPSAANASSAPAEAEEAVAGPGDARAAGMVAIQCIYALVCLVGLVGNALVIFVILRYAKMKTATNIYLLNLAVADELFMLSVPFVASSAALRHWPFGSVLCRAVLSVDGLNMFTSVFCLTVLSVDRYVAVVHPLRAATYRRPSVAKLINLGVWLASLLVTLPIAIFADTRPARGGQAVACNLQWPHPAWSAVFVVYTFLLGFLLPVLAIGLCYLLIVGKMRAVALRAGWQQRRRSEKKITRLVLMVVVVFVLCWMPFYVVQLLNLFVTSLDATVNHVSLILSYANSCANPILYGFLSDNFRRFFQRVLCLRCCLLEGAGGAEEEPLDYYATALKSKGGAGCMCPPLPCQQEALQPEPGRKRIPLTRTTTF

human SSTR2 = biological target: T1, human SSTR2 (Homo sapiens, UniProt P30874); assay: Evaluation of SSTR2 agonistic activity using cells expressing human SSTR2 (suppression of forskolin-stimulated cAMP production, SSTR2-CHO-K1); assay type: cell-based; conditions: suppression of cAMP production by forskolin stimulation, 1000 nmol/L octreotide = 100%
T1 construct: Myc; expressed in transfected cells
T1 sequence (P30874 whole entry): as the sequence (P30874 whole entry, species assumed) above

hERG K+ channel = biological target: T2, hERG K+ channel (Homo sapiens, UniProt Q12809); assay: Evaluation of hERG K+ channel inhibitory activity using cells expressing human ERG (automated patch-clamp, CHO-K1); assay type: cell-based; conditions: CHO-K1 cells with human ERG gene, tested at 1, 3 and 10 μmol/L, 5-minute incubation
T2 construct: expressed in transfected cells; host or cells: CHO-K1
T2 sequence (Q12809 whole entry): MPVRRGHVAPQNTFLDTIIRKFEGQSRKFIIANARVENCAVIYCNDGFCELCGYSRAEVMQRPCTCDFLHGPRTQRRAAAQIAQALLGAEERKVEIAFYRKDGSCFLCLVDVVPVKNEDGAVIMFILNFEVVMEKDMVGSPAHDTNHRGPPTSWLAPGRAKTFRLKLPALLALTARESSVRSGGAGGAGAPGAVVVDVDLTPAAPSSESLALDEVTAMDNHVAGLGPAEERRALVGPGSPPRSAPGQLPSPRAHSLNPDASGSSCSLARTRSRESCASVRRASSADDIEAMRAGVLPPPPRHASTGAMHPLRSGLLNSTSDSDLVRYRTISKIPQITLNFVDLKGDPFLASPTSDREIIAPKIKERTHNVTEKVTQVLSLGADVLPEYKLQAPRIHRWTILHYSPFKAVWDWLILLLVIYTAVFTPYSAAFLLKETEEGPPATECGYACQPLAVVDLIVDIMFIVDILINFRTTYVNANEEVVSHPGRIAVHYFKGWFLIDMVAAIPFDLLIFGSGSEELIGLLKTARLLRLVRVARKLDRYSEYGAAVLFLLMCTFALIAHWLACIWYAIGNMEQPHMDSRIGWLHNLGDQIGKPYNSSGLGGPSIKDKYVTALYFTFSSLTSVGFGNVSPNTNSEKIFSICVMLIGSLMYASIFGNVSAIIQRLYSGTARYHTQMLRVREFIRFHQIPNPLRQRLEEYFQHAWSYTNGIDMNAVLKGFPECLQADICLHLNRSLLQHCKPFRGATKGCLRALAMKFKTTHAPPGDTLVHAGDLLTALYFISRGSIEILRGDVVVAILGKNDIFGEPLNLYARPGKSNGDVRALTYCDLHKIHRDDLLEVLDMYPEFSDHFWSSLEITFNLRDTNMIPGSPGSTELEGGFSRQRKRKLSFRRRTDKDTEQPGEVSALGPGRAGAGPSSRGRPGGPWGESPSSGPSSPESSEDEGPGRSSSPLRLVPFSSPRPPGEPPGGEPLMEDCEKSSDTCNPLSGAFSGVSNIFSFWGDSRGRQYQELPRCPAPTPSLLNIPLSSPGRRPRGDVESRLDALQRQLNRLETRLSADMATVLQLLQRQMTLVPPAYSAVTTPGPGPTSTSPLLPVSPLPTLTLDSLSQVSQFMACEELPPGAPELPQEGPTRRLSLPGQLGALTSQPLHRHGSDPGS
Procedure: Evaluation of hERG K^+ Channel Inhibitory Activity Using Cells Expressing Human ERG
CHO-K1 cells having the human ERG gene (ether-a-go-go related gene) introduced therein were subcultured in an F-12 medium [F-12 Nutrient Mixture (HAM)] containing 10% inactivated foetal bovine serum, 100 IU/mL penicillin-100 μg/mL streptomycin and 200 μg/mL geneticin.
Patch-clamp was performed in a full-automated manner using CHO-K1 cells having the human ERG gene introduced therein and having a perforated patch formed therein with amphotericin B. For the experiment, a 384-well PatchPlate™ was used and the cell suspension and compounds were added thereto. The IKr current was measured with command voltages of holding potential of −80 mV, depolarization potential of +40 mV (2 seconds) and repolarization potential of −50 mV (2 seconds). The stimulation frequency was twice (single pulse stimulations) before and after the treatment with a drug (the concentrations of a compound for evaluation were 1, 3 and 10 μmol/L, a 5-minute incubation), and the Ikr maximum current was measured. The inhibition (%) on the CHO-K1 cells having the human ERG gene introduced therein was determined by correcting the variation in the maximum tail current before and after addition of the test substance by the variation thereof in the group treated with a medium (inhibition (%)=(1-variation in current before and after addition of a test substance/variation in current before and after addition of a medium)×100). The 50% inhibitory concentration (IC50 value) was calculated from a line connecting two points on both sides of the inhibition of 50%.

[5] = test system: Chinese hamster lung-derived CHL/IU cells; assay: Evaluation of phospholipidosis induction ability using cultured cell line (NBD-PE incorporation); assay type: cell-based; conditions: 24 hours, 6.25-100 μmol/L, positive = 25% or more of amiodarone maximum reaction at cell viability 50% or more
Procedure: Chinese hamster lung-derived CHL/IU cells were suspended in an MEM-E culture solution containing non-essential amino acids, sodium pyruvate and 10% foetal bovine serum and seeded in a 96-well plate. The cells cultured overnight in an incubator (5% carbon dioxide, 95% air, 37° C.) were further cultured for 24 hours after replacing the culture solution with a culture solution containing 6.25, 12.5, 25, 50 or 100 μmol/L of a test substance and NBD-PE (fluorescence label N-(7-nitrobenz-2-oxa-1,3-diazol-4-yl)-1,2-dihexadecanoyl-sn-glycero-3-phosphoethanolamine triethylammonium salt) obtained from Molecular Probes. The phospholipidosis induction ability was evaluated by measuring the concentration of NBD-PE incorporated into the cells. Specifically, the cells were washed twice with PBS and then measured for the fluorescence of NBD-PE (excitation wavelength: 485 nm, fluorescence wavelength: 535 nm) incorporated in the cells on a SpectraMax plate reader available from Molecular Devices, LLC. for evaluation. After measurement of the fluorescence of NBD-PE, the cell viability was evaluated with Premix WST-1 Cell Proliferation Assay System available from TaKaRa Bio Inc. The phospholipidosis induction ability was judged to be positive when, at a dose that provided a cell viability of 50% or more, the reaction (the concentration of NBD-PE incorporated after administration of a test substance) was 25% or more of the maximum reaction of a positive control amiodarone (the concentration of NBD-PE incorporated into the cells after administration of amiodarone was regarded as 100%).

GH secretion = assay: Evaluation of suppression of growth hormone (GH) secretion using rats (GHRH-induced); assay type: in vivo; conditions: Rattus norvegicus, 5 min, oral, dosage of 1 mg/kg, GHRH given 8 hours after dosing, blood GH 5 minutes after GHRH
Procedure: A medium (distilled water (Otsuka distilled water, Otsuka Pharmaceutical Factory, Inc.)) or a test compound dissolved in the medium was orally administered to rats (7-week old male Crl:CD(SD) IGS rats (Charles River Laboratories Japan, Inc.)) and after 7 hours and 57 minutes, the animals were administered with 50 mg/kg of pentobarbital sodium (Somnopentyl, Kyoritsu Seiyaku Corporation) via the tail vein for anaesthesia. Three minutes after administration of pentobarbital sodium, the rats were administered with 0.01 mg/kg of growth hormone-releasing hormone (GHRH, Bachem) via the tail vein to induce GH secretion. In order to measure the blood GH concentration, 0.2 mL of blood was collected through the jugular vein at 5 minutes after administration of GHRH. The collected blood was centrifuged at 4° C., 13,000×g for 5 minutes to obtain plasma. The blood GH concentration was measured by using Rat/Mouse Growth Hormone ELISA (Millipore) following the instruction of the kit. The percentage (%) of suppression of GH secretion was determined by using the obtained blood GH concentration and the equation {[suppression (%) of GH secretion]=([blood GH concentration of the group administered with the medium]−[blood GH concentration of the group administered with a test compound])/[blood GH concentration of the group administered with the medium]×100}. In the equation, the group administered with the medium represents the group of animals administered with the medium and the group administered with a test compound represents the group of animals administered with a test compound dissolved in the medium.

Structure (SMILES) | EC50 (human SSTR2) [nM] | percentage of suppression of gastric acid secretion (gastric acid secretion) [%] | binding affinity to SSTR2 [1] | binding affinity to SSTR3 [2] | binding to SSTR1 [3] | binding to SSTR4 [4] | IC50 (hERG K+ channel) [nM] | phospholipidosis induction ability (judgement) [5] | inhibition in vivo at 1 mg/kg (GH secretion) [%]
C[C@@H](O)[C@@H]1NC(=O)[C@H](CCCCN)NC(=O)[C@@H](Cc2c[nH]c3ccccc23)NC(=O)[C@H](Cc2ccccc2)NC(=O)[C@@H](NC(=O)[C@H](N)Cc2ccccc2)CSSC[C@@H](C(=O)N[C@H](CO)[C@@H](C)O)NC1=O [octreotide] |  | 39 |  |  |  |  |  |  | 
CC(C)[C@@H]1NC(=O)[C@H](CCCCN)NC(=O)[C@@H](Cc2c[nH]c3ccccc23)NC(=O)[C@H](Cc2ccc(O)cc2)NC(=O)[C@@H](NC(=O)[C@H](N)Cc2ccc3ccccc3c2)CSSC[C@@H](C(=O)N[C@H](C(N)=O)[C@@H](C)O)NC1=O [lanreotide acetate] |  |  | high affinity | moderate affinity | do not bind | do not bind |  |  | 
Cc1ncc(-c2cc(F)cc(F)c2)c(N2CC[C@@H](NCCC(F)(F)F)[C@@H](O)C2)c1-c1nc2cc(F)c(F)cc2[nH]1 [Example 3(12), (3S,4R)-1-[3-(5,6-difluoro-1H-benzimidazol-2-yl)-5-(3,5-difluorophenyl)-2-methyl-4-pyridinyl]-4-[(3,3,3-trifluoropropyl)amino]-3-piperidinol] | 1 |  |  |  |  |  | 5100 | negative | 85
CCN[C@@H]1CCN(c2c(-c3nc4cc(F)c(F)cc4[nH]3)cncc2-c2cc(F)ccc2F)C[C@@H]1O [Example 5(4), (3S,4R)-1-[3-(5,6-difluoro-1H-benzimidazol-2-yl)-5-(2,5-difluorophenyl)-4-pyridinyl]-4-(ethylamino)-3-piperidinol] | 0.031 |  |  |  |  |  | 8400 | negative | 90

Now from value to molecule, other results behind:

EC50 (human SSTR2) [nM] | Structure (SMILES) | percentage of suppression of gastric acid secretion (gastric acid secretion) [%] | binding affinity to SSTR2 [1] | binding affinity to SSTR3 [2] | binding to SSTR1 [3] | binding to SSTR4 [4] | IC50 (hERG K+ channel) [nM] | phospholipidosis induction ability (judgement) [5] | inhibition in vivo at 1 mg/kg (GH secretion) [%]
0.067 | COc1cc2nc(-c3cncc(-c4cc(F)cc(F)c4)c3N3CC[C@@H](NCCC(F)(F)F)[C@@H](O)C3)[nH]c2cc1F [Example 5(6), (3S,4R)-1-[3-(3,5-difluorophenyl)-5-(6-fluoro-5-methoxy-1H-benzimidazol-2-yl)-4-pyridinyl]-4-[(3,3,3-trifluoropropyl)amino]-3-piperidinol] |  |  |  |  |  | ≥ 10000 | negative | 83
0.14 | O[C@H]1CN(c2c(-c3cc(F)cc(F)c3)cncc2-c2nc3cc(F)c(F)cc3[nH]2)CC[C@H]1NC1COC1 [Example 5, (3S,4R)-1-[3-(5,6-difluoro-1H-benzimidazol-2-yl)-5-(3,5-difluorophenyl)-4-pyridinyl]-4-(3-oxetanylamino)-3-piperidinol] |  |  |  |  |  | 7600 | negative | 92
